According to ChEMBL document CHEMBL1201862, “PubChem BioAssay data set” (2004):
The source made the active and inactive calls.

Key:
[1] = biological target: G-protein coupled receptor 55 (Homo sapiens, UniProt Q9Y2T6); test: GPR55 agonists via beta-arrestin recruitment, primary screen, imaging, U2OS cells, beta-arrestin-GFP redistribution (AID 1961); type: functional
BJ = test: cells; type: functional, cell-based; details: Homo sapiens
[2] = inhibitors of firefly luciferase expression or activity, dose response, H4 neuroglioma cells, luminescence (AID 1990); type: functional, cell-based
[3] = inhibitors of SNCA 5'UTR-driven reporter translation, confirmation, H4 neuroglioma cells, luminescence (AID 1988); type: functional, cell-based
[4] = inhibitors of SNCA 5'UTR-driven translation, confirmation, luminescence, H4 neuroglioblastoma cells, dose confirmation (AID 2454); type: functional, cell-based;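 further: H4 neuroglioblastoma cells carrying an alpha-synuclein 5'UTR luciferase reporter; potency for inhibition of the luciferase signal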
[5] = Luminescence Cell-Based Dose Response HTS to Identify Inhibitors of 5'UTR Stem-Loop Driven Prion Protein mRNA Translation in H4 Neuroglioblastoma Cells. [Related pubchem assays: 1827 (Project Summary), 1813 (Primary HTS)]; type: functional
cells = type: functional, cell-based
[6] = luciferase reporter signal reduction – luminescence, H4-C neuroglioblastoma cells, dose response (AID 2458); type: functional, cell-based;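 further: H4 neuroglioblastoma cells stably carrying a luciferase reporter gene fusion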
[7] = cytotoxicity in HEK-293T cells, dose response, cytotoxicity control for TCR NF-kB inhibitor project, luminescence, T-cell screen hits (AID 489026); type: functional, cell-based;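 further: cells exposed to compound about 14 hours before the viability readout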
[8] = Luminescence-based dose response cell-based high throughput screening assay for cytotoxic compounds using the IEC-6 intestinal epithelial cell line. [Related pubchem assays: 1858 (Summary AID.), 1825 (Counterscreen.), 1907 (Confirmation screen.)]; type: functional
[9] = biological target: Cystic fibrosis transmembrane conductance regulator/Golgi-associated PDZ and coiled-coil motif-containing protein (Homo sapiens, UniProt P13569+Q9HD26); test: CAL PDZ peptide-binding inhibitors, dose response, biochemical, fluorescence polarization, Cerulean-tagged CAL PDZ, cherry-picks (AID 504773)
Interleukin-8 [10] = biological target: T1, Interleukin-8 (Homo sapiens, UniProt P10145); test: SAR analysis of Tumor necrosis factor alpha (TNF-alpha) induced IL-8 secretion in MCF-7/NOD1 cells - Set 2. [Related pubchem assays (depositor defined):AID1575, AID2250, AID2260]; type: functional, cell-based
T1 sequence (P10145 whole entry): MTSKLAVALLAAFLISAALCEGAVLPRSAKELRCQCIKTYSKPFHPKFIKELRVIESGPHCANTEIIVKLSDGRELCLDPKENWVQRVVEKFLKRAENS

HEK293 = test: cells; details: Homo sapiens
[11] = biological target: T2, Nucleotide-binding oligomerization domain-containing protein 1 (Homo sapiens, UniProt Q9Y239); test: NOD1 signaling inhibitors, SAR follow-up, revised (AID 2333); type: functional
T2 sequence (Q9Y239 whole entry): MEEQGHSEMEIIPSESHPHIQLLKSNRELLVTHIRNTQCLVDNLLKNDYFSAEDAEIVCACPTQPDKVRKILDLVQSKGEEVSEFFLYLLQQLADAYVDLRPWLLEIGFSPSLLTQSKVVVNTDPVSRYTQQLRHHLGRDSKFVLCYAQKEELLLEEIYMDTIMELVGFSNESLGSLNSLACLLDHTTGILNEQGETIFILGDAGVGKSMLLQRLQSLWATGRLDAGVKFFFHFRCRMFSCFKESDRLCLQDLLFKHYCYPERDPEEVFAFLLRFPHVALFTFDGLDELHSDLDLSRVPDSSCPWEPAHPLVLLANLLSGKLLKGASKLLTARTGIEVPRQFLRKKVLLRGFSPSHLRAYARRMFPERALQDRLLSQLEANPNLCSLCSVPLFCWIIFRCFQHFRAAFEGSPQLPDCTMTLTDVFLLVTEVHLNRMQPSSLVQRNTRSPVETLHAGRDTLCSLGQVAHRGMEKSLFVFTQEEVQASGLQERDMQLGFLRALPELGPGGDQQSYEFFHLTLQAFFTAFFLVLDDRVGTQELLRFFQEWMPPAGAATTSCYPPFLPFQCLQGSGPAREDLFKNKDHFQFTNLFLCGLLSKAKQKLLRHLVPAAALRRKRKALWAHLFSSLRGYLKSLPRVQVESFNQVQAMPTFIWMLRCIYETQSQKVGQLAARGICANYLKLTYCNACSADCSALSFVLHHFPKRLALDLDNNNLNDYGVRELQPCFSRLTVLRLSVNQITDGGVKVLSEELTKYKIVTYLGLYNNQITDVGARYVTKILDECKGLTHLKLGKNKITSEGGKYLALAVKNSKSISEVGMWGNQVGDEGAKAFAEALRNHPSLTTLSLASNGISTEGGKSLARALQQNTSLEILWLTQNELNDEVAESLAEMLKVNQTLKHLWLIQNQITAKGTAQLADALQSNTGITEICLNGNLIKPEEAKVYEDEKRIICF

Interleukin-8 [12] = biological target: T1, Interleukin-8; test: SAR analysis of GM-Tri-DAP induced IL-8 secretion in MCF-7/NOD1 cells - Set 2. [Related pubchem assays (depositor defined):AID1575, AID1578, AID2333]; type: functional, cell-based
Tumor necrosis factor = Tumor necrosis factor (Homo sapiens, UniProt P01375); test: TNFa-triggered NF-kB activation inhibitors, SAR follow-up, cell-based, revised (AID 2337); type: functional
[13] = biological target: Nucleotide-binding oligomerization domain-containing protein 2 (Homo sapiens, UniProt Q9HC29); test: PubChem AID 2334; type: functional
[14] = biological target: T3, Intestinal-type alkaline phosphatase (Homo sapiens, UniProt P09923); test: human intestinal alkaline phosphatase activators, dose response, biochemical, luminescence, uHTS hits (AID 463120); type: functional
[15] = biological target: T3, Intestinal-type alkaline phosphatase; test: Dose Response confirmation of uHTS hits from a small molecule inhibitors of human intestinal alkaline phosphatase via a luminescent assay. [Related pubchem assays (depositor defined):AID2544, AID2574]; type: functional
[16] = biological target: Dual specificity protein phosphatase 3 (Homo sapiens, UniProt P51452); test: VHR1 inhibitor Ki determination, SAR follow-up, biochemical, colorimetric (AID 2004)
[17] = biological target: NACHT, LRR and PYD domains-containing protein 3 (Homo sapiens, UniProt Q96P20); test: NALP3 inhibitors in yeast, dose response, luminescent (AID 488799); type: functional
[18] = biological target: Glucose-6-phosphate 1-dehydrogenase (Homo sapiens, UniProt P11413); test: human G6PD enzyme inhibitors, dose response, selectivity assay for P. falciparum G6PD inhibitor project, biochemical, fluorescence (AID 504792); type: functional

T3 sequence (P09923 whole entry): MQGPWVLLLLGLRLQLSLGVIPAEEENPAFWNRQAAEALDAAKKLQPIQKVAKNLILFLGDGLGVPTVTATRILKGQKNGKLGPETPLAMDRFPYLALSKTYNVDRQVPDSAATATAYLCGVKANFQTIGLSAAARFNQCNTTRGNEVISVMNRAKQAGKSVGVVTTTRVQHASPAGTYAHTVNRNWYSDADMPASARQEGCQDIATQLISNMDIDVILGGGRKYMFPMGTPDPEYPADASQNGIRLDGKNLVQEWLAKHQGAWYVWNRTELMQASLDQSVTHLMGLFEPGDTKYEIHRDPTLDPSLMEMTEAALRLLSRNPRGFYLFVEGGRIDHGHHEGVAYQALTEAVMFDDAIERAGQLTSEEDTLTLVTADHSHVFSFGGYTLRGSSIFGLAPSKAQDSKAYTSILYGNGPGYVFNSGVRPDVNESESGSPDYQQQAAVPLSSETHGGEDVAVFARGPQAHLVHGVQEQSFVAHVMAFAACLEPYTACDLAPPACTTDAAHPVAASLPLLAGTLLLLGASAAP
Chain of G-protein coupled receptor 55 (Q9Y2T6 whole entry): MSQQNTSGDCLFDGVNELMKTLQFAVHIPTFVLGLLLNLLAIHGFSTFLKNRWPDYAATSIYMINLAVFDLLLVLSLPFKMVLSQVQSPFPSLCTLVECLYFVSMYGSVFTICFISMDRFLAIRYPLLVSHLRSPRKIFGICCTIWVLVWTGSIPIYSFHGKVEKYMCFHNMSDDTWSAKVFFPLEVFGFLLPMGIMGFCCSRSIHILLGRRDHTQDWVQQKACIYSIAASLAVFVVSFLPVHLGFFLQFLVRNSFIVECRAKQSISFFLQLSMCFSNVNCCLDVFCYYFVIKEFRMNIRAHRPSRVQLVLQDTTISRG
Chain of Cystic fibrosis transmembrane conductance regulator/Golgi-associated PDZ and coiled-coil motif-containing protein (P13569 whole entry, other chains not shown): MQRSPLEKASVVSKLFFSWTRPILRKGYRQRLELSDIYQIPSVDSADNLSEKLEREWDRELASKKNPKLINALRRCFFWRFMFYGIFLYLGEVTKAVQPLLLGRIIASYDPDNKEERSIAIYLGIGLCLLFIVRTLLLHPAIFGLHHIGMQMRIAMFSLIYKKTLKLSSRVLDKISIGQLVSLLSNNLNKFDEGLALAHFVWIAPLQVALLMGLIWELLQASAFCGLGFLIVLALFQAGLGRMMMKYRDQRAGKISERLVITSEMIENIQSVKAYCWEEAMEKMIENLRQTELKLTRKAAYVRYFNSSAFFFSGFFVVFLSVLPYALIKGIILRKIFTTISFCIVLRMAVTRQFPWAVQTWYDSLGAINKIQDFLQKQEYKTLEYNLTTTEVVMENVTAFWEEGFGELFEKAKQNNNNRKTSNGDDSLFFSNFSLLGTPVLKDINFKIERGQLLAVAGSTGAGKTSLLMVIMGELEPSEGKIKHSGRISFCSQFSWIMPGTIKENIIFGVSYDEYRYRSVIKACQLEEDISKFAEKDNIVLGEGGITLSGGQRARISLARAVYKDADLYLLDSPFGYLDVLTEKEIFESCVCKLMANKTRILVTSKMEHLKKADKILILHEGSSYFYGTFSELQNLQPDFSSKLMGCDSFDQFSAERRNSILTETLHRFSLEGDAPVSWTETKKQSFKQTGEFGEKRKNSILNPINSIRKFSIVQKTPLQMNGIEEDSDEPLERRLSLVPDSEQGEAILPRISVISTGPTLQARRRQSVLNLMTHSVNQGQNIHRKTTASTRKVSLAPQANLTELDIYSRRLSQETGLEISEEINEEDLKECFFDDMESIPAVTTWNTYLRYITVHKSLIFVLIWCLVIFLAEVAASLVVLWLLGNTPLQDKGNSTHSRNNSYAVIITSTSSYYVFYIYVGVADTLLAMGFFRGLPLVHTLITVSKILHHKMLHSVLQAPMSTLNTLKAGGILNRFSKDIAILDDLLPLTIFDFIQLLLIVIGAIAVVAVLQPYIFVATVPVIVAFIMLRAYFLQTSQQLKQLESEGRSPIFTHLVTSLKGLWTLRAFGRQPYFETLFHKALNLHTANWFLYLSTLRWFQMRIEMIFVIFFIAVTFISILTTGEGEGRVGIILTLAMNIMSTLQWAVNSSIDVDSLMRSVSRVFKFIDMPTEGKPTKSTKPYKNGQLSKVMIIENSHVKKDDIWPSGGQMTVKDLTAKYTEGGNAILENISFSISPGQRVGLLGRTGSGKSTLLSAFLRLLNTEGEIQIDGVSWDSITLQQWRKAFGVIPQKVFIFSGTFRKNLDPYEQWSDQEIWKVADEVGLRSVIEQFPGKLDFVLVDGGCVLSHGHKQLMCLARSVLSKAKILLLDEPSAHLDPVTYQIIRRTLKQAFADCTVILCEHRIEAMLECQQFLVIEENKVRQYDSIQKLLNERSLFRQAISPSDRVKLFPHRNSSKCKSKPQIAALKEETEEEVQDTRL
Chain of NACHT, LRR and PYD domains-containing protein 3 (Q96P20 whole entry, the tested form may be a part): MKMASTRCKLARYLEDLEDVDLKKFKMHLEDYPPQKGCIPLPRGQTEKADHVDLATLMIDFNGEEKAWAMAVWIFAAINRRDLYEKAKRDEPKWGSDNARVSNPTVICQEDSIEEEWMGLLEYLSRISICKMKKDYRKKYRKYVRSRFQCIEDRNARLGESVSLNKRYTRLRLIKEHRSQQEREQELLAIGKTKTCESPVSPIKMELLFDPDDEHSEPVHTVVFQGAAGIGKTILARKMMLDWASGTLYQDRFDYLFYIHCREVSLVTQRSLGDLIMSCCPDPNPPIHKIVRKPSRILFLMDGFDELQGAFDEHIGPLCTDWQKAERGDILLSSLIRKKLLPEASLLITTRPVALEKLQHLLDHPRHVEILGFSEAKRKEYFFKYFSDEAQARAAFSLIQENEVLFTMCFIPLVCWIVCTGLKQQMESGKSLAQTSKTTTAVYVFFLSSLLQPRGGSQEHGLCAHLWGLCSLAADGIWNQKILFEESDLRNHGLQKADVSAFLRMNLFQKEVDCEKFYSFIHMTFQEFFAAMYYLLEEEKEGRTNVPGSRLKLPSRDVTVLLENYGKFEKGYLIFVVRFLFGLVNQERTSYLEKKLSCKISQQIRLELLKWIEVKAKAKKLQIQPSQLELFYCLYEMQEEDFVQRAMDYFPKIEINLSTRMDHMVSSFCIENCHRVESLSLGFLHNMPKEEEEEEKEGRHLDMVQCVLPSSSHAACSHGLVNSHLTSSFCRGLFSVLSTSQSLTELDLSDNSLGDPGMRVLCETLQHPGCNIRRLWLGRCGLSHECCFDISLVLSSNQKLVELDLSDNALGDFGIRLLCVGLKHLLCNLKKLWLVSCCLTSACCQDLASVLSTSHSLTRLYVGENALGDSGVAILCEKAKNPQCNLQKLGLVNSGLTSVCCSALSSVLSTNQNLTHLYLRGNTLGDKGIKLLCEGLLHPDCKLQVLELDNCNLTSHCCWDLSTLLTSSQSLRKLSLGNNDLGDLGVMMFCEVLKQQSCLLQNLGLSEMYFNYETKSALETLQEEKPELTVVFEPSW
Chain of Tumor necrosis factor (P01375 whole entry, the tested form may be a part): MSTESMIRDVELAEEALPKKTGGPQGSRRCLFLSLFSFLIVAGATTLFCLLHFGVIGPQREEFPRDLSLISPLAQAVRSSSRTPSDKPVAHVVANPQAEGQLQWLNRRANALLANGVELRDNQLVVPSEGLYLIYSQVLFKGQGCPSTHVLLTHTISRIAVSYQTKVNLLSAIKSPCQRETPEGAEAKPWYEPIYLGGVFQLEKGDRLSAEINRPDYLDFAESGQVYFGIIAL
Chain of Dual specificity protein phosphatase 3 (P51452 whole entry, the tested form may be a part): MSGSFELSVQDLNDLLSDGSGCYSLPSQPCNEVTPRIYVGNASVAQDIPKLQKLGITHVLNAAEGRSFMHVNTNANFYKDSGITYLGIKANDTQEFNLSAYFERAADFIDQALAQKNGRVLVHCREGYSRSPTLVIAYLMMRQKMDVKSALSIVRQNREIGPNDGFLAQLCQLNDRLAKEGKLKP
Chain of Nucleotide-binding oligomerization domain-containing protein 2 (Q9HC29 whole entry, the tested form may be a part): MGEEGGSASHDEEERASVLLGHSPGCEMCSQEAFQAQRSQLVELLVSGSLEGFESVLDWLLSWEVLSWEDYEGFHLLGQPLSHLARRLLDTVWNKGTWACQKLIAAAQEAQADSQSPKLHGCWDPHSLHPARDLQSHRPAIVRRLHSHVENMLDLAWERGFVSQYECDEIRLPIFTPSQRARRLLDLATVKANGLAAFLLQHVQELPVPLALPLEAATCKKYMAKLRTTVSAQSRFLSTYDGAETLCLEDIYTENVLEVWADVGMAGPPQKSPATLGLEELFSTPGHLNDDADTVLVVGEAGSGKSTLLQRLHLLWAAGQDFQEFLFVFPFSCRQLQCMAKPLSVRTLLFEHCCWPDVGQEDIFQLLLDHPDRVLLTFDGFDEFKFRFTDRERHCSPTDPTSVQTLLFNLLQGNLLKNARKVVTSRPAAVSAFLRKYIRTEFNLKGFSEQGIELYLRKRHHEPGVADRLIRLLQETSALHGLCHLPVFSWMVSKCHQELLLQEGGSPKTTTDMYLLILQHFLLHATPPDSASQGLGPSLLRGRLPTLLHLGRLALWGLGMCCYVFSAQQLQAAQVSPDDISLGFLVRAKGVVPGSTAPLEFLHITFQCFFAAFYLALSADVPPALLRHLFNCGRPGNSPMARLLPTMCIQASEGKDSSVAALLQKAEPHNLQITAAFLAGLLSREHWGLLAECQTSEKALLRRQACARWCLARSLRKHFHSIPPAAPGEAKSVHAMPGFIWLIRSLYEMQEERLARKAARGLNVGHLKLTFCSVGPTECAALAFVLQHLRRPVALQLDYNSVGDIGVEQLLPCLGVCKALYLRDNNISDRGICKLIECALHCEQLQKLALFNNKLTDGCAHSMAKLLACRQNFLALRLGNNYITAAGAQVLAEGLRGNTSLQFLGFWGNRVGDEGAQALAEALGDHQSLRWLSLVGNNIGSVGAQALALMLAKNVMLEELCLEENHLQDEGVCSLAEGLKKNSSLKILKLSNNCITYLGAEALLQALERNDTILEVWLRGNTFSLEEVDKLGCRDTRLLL

## COc1ccc2cc(C)c3nnc(SCC(=O)Nc4nc(-c5ccccc5)cs4)n3c2c1
[1]
  EC50: 1.03 µM (active)

## CSc1nc(N(C)NC(=O)c2cccc(C)c2)c2ccccc2n1
BJ
  EC50: 0.272 µM (active)
[2]
  EC50: < 0.1 µM (active)
[3]
  EC50: < 0.1 µM (active)
[4]
  EC50: 0.073 µM (active)
[5]
  EC50: < 0.1 µM (active)
cells
  EC50: 0.104 µM (active)
[6]
  EC50: 0.087 µM (active)
[7]
  IC50: > 80 µM (inactive)
[8]
  IC50: 0.14 µM (active)

## O=C1CC(c2ccccc2)=C(c2ccccc2)C1
[9]
  AC50: 18.7 µM (active)

## COc1ccc(C(=O)Cn2c(N)nc3ccccc32)cc1
Interleukin-8 [10]
  IC50: > 25 µM (inactive)
HEK293
  IC50: > 20 µM (inactive)
[11]
  IC50: > 20 µM (inactive)
Interleukin-8 [12]
  IC50: > 25 µM (inactive)
Tumor necrosis factor
  IC50: > 20 µM (inactive)
[13]
  IC50: > 20 µM (inactive)

## O=S(=O)(c1ccccc1)N1CCCC1c1cccs1 (configuration not stated)
[14]
  EC50: > 100 µM (inactive)
[15]
  IC50: > 100 µM (inactive)

## CCN(CC)c1ccc(Nc2nc(-c3sc(N)nc3C)cs2)cc1
[16]
  Ki: 30.2 µM (inactive)

## Cc1nc2ccc(Nc3nc4cc(S(=O)(=O)N5CCOCC5)ccc4o3)cc2s1
[17]
  IC50: > 100 µM (inactive)
[18]
  IC50: > 80 µM (inactive)
